Measurements reported in PubChem BioAssay (NCI).
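Interpolation was linear, between the two tested concentrations surrounding the appropriate level; five concentrations were tested over 48 hours in 96-well plates. Here, GI50 denotes the concentration required for 50% inhibition of growth. TGI: total growth inhibition.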

Legend:
Experiment in all cases: inhibition of tumour cell growth, NCI panel, 48 h
[1] = system: 786-0 renal
[2] = system: A498 renal
[3] = system: A549 NSCLC
[4] = system: ACHN renal
[5] = system: BT-549 breast
[6] = system: CAKI-1 renal
[7] = system: CCRF-CEM leukemia
[8] = system: COLO 205 colon
[9] = system: DU-145 prostate
[10] = system: EKVX NSCLC
[11] = system: HCC-2998 colon
[12] = system: HCT-116 colon
[13] = system: HCT-15 colon
[14] = system: HL-60(TB) leukemia
[15] = system: HOP-62 NSCLC
[16] = system: HOP-92 NSCLC
[17] = system: HS 578T breast
[18] = system: HT29 colon
[19] = system: IGROV1 ovarian
[20] = system: K-562 leukemia
[21] = system: KM12 colon
[22] = system: M14 melanoma
[23] = system: MALME-3M melanoma
[24] = system: MCF7 breast
[25] = system: MDA-MB-231 breast
[26] = system: MDA-MB-435
[27] = system: MOLT-4 leukemia
[28] = system: NCI-H226 lung
[29] = system: NCI-H23 lung
[30] = system: NCI-H460 lung
[31] = system: NCI/ADR-RES ovarian
[32] = system: OVCAR-3 ovarian
[33] = system: OVCAR-4 ovarian
[34] = system: OVCAR-5 ovarian
[35] = system: OVCAR-8 ovarian
[36] = system: PC-3 prostate
[37] = system: RPMI-8226 leukemia
[38] = system: RXF 393 renal
[39] = system: SF-268 CNS
[40] = system: SF-295 CNS
[41] = system: SF-539 CNS
[42] = system: SK-MEL-2 melanoma
[43] = system: SK-MEL-28 melanoma
[44] = system: SK-MEL-5 melanoma
[45] = system: SK-OV-3 ovarian
[46] = system: SN12C renal
[47] = system: SNB-19 CNS
[48] = system: SNB-75 CNS
[49] = system: SR leukemia
[50] = system: SW-620 colon
[51] = system: T-47D breast
[52] = system: TK-10 renal
[53] = system: U251 CNS
[54] = system: UACC-257 melanoma
[55] = system: UACC-62 melanoma
[56] = system: UO-31 renal

Q: Which results are given for `CNC1CCc2c(sc(NC(=O)c3ccc(C(C)(C)C)cc3)c2C(N)=O)C1` (configuration not stated)?
A: GI50 [1]: 1610 nM; TGI [1]: 3100 nM; GI50 [2]: 1480 nM; TGI [2]: 4280 nM; GI50 [3]: 2090 nM; TGI [3]: 4460 nM; GI50 [4]: 2010 nM; TGI [4]: 4230 nM; GI50 [5]: 1850 nM; TGI [5]: 4670 nM; GI50 [6]: 1900 nM; TGI [6]: 3810 nM; GI50 [7]: 1520 nM; TGI [7]: 4850 nM; GI50 [8]: 1730 nM; TGI [8]: 3540 nM; GI50 [9]: 1950 nM; TGI [9]: 4030 nM; GI50 [10]: 1720 nM; TGI [10]: 4260 nM; GI50 [11]: 1760 nM; TGI [11]: 3340 nM; GI50 [12]: 1340 nM; TGI [12]: 2660 nM; GI50 [13]: 1520 nM; TGI [13]: 3150 nM; GI50 [14]: 634 nM; TGI [14]: 2360 nM; GI50 [15]: 1550 nM; TGI [15]: 3600 nM; GI50 [16]: 944 nM; TGI [16]: 5040 nM; GI50 [17]: 2150 nM; TGI [17]: 5430 nM; GI50 [18]: 1290 nM; TGI [18]: 3710 nM; GI50 [19]: 1590 nM; TGI [19]: 3580 nM; GI50 [20]: 1320 nM; TGI [20]: 3340 nM; GI50 [21]: 1890 nM; TGI [21]: 3610 nM; GI50 [22]: 1750 nM; TGI [22]: 3600 nM; GI50 [23]: 1630 nM; TGI [23]: 3260 nM; GI50 [24]: 1650 nM; TGI [24]: 3530 nM; GI50 [25]: 1610 nM; TGI [25]: 2970 nM; GI50 [26]: 1750 nM; TGI [26]: 3400 nM; GI50 [27]: 1740 nM; TGI [27]: 4090 nM; GI50 [28]: 1870 nM; TGI [28]: 4020 nM; GI50 [29]: 1670 nM; TGI [29]: 3620 nM; GI50 [30]: 1630 nM; TGI [30]: 3330 nM; GI50 [31]: 2340 nM; TGI [31]: 6340 nM; GI50 [32]: 1920 nM; TGI [32]: 3990 nM; GI50 [33]: 2050 nM; TGI [33]: 5030 nM; GI50 [34]: 2000 nM; TGI [34]: 4390 nM; GI50 [35]: 2660 nM; TGI [35]: 6930 nM; GI50 [36]: 1730 nM; TGI [36]: 4020 nM; GI50 [37]: 1950 nM; TGI [37]: 4890 nM; GI50 [38]: 1420 nM; TGI [38]: 2810 nM; GI50 [39]: 2440 nM; TGI [39]: 5420 nM; GI50 [40]: 1760 nM; TGI [40]: 3270 nM; GI50 [41]: 1660 nM; TGI [41]: 3070 nM; GI50 [42]: 2000 nM; TGI [42]: 4100 nM; GI50 [43]: 1730 nM; TGI [43]: 3250 nM; GI50 [44]: 1700 nM; TGI [44]: 3080 nM; GI50 [45]: 2350 nM; TGI [45]: 6140 nM; GI50 [46]: 2400 nM; TGI [46]: 7340 nM; GI50 [47]: 1870 nM; TGI [47]: 3640 nM; GI50 [48]: 2020 nM; TGI [48]: 5660 nM; GI50 [49]: 1290 nM; TGI [49]: 3510 nM; GI50 [50]: 1910 nM; TGI [50]: 3660 nM; GI50 [51]: 2060 nM; TGI [51]: 5590 nM; GI50 [52]: 2000 nM; TGI [52]: 3760 nM; GI50 [53]: 1810 nM; TGI [53]: 3790 nM; GI50 [54]: 1920 nM; TGI [54]: 4430 nM; GI50 [55]: 1660 nM; TGI [55]: 3060 nM; GI50 [56]: 1510 nM; TGI [56]: 3460 nM
